Series [1] relates to Staphylococcus aureus. Nature of the series: Antibacterial activity against Staphylococcus aureus assessed as bacterial growth inhibition incubated for 24 hrs by CLSI based two serial dilution assay. The series is classed as functional.
In series [2] the test system is Pseudomonas aeruginosa. Nature of the series: Antibacterial activity against Pseudomonas aeruginosa assessed as bacterial growth inhibition incubated for 24 hrs by CLSI based two serial dilution assay. The series is classed as functional.
Series [3] has as its system Enterococcus faecalis. As to the kind of experiment: Antibacterial activity against Enterococcus faecalis assessed as bacterial growth inhibition incubated for 24 hrs by CLSI based two serial dilution assay. The series is classed as functional.
The subject of series [4] is Acinetobacter baumannii. Nature of the series: Antibacterial activity against Acinetobacter baumannii assessed as bacterial growth inhibition incubated for 24 hrs by CLSI based two serial dilution assay. The series is classed as functional.
Series [5] deals with Pseudomonas aeruginosa. As to the kind of experiment: Antibacterial activity against Pseudomonas aeruginosa ATCC 27853 assessed as bacterial growth inhibition incubated for 24 hrs by CLSI based two serial dilution assay. The format is functional.
Series [6] deals with Staphylococcus aureus. Nature of the series: Antibacterial activity against Staphylococcus aureus 25923 assessed as bacterial growth inhibition incubated for 24 hrs by CLSI based two serial dilution assay. The series is classed as functional.
The test system of series [7] is Escherichia coli. As to the kind of experiment: Antibacterial activity against Escherichia coli 25922 assessed as bacterial growth inhibition incubated for 24 hrs by CLSI based two serial dilution assay. The series is classed as functional.
Series [8] relates to Staphylococcus aureus. Nature of the series: Induction of resistance development in methicillin-resistant Staphylococcus aureus assessed as fold increase in MIC measured after consecutive passages for 24 hrs by serial passaging assay. The series is classed as functional.
Series [9] relates to Escherichia coli. Nature of the series: Antibacterial activity against Escherichia coli assessed as bacterial growth inhibition incubated for 24 hrs by CLSI based two serial dilution assay. The format is functional.
For series [10], the system named is Staphylococcus aureus. As to the kind of experiment: Antibacterial activity against methicillin-resistant Staphylococcus aureus assessed as bacterial growth inhibition incubated for 24 hrs by CLSI based two serial dilution assay. The series is classed as functional.
Series [11] has as its system Staphylococcus aureus. As to the kind of experiment: Antibacterial activity against Staphylococcus aureus 29213 assessed as bacterial growth inhibition incubated for 24 hrs by CLSI based two serial dilution assay. The format is functional.
In series [12] the test system is Klebsiella pneumoniae. As to the kind of experiment: Antibacterial activity against Klebsiella pneumoniae assessed as bacterial growth inhibition incubated for 24 hrs by CLSI based two serial dilution assay. The format is functional.
Series [13] deals with Cell membrane. Nature of the series: Induction of membrane depolarization in methicillin-resistant Staphylococcus aureus assessed as increase in fluorescence intensity at 4 times MIC measured at 5 min by DiSC35 dye-based fluorescence assay. The series is classed as subcellular.
For series [14], the system named is Staphylococcus aureus. As to the kind of experiment: Antibiofilm activity against methicillin-resistant Staphylococcus aureus assessed as decrease in metabolic activity at 1 to 16 microg/ml measured for 6 hrs by alamar blue staining based assay. The format is functional, organism-based. To be noted: dose 1-16 µg/ml.
Series [15] relates to Cell membrane. As to the kind of experiment: Induction of cell membrane permeability in Staphylococcus aureus assessed as increase in fluorescence intensity measured upto 135 mins by propidium iodide staining based fluorescence assay. The series is classed as subcellular.
Series [16] concerns Candida parapsilosis. As to the kind of experiment: Antifungal activity against Candida parapsilosis ATCC 22019 assessed as inhibition of fungal growth incubated for 24 hrs by CLSI based two serial dilution assay. To be noted: Lodderomyces parapsilosis. The format is functional.
For series [17], the system named is Candida albicans. Nature of the series: Antifungal activity against Candida albicans ATCC 90023 assessed as inhibition of fungal growth incubated for 24 hrs by CLSI based two serial dilution assay. The series is classed as functional.
Series [18] deals with Candida albicans. As to the kind of experiment: Antifungal activity against Candida albicans assessed as inhibition of fungal growth incubated for 24 hrs by CLSI based two serial dilution assay. The format is functional.
In series [19] the test system is Candida tropicalis. Nature of the series: Antifungal activity against Candida tropicalis assessed as inhibition of fungal growth incubated for 24 hrs by CLSI based two serial dilution assay. The series is classed as functional.
The test system of series [20] is Staphylococcus aureus. Nature of the series: Bactericidal activity against methicillin-resistant Staphylococcus aureus assessed as increase in apoptotic cells at 4 times MIC by fluorescence microscopic analysis. To be noted: time <= 250.0 min. The series is classed as functional, organism-based.
Series [21] concerns Staphylococcus aureus. Nature of the series: Antibiofilm activity against methicillin-resistant Staphylococcus aureus assessed as inhibition of biofilm formation at 4 microg/ml incubated for 24 hrs by crystal violet staining based assay. Details: scale not given: the % may be the effect or the level left. The settings on record: dose 4 µg/ml. The format is functional.
Series [22] deals with Aspergillus fumigatus. As to the kind of experiment: Antifungal activity against Aspergillus fumigatus assessed as inhibition of fungal growth incubated for 24 hrs by CLSI based two serial dilution assay. The format is functional.
Series [23] concerns Staphylococcus aureus. As to the kind of experiment: Bactericidal activity against methicillin-resistant Staphylococcus aureus assessed as increase in apoptotic cells by measuring red fluorescence intensity at 4 times MIC measured upto 250 min by fluorescence microscopic analysis. The format is functional, organism-based.
The nature of series [24]: Cytotoxicity against human BEAS-2B cells assessed as survival rate at 0.5 to 64 microg/ml incubated for 24 hrs by MTT assay. The series is classed as toxicity, cell-based. The settings on record: at 0.5 to 64 µg/mL, dose 0.5-64 µg/ml, read-out: Activity. On the technique in general: Formazan colour is commonly taken as a measure of viable cells.
Series [25] relates to Cell membrane. As to the kind of experiment: Induction of membrane depolarization in methicillin-resistant Staphylococcus aureus assessed as increase in fluorescence intensity at 1 times MIC by DiSC35 dye-based fluorescence assay. The format is subcellular. The settings on record: time 1.0 hrs, TDE = time-dependent effect.
Series [26] in a line: Hemolytic activity in human RBC assessed as hemolysis at 64 microg/ml incubated for 2 hrs by double-dilution analysis. To be noted: red blood cells (erythrocytes), at 64 µg/mL, read-out: Activity. The format is toxicity, cell-based, Erythrocyte.
For series [27], the system named is Staphylococcus aureus. Nature of the series: Bactericidal activity against methicillin-resistant Staphylococcus aureus assessed as reduction in viable bacteria at 4 times MIC measured at 30 mins by fluorescence microscopic analysis. The series is classed as functional, organism-based.
Series [28] deals with Staphylococcus aureus. Nature of the series: Antibiofilm activity against methicillin-resistant Staphylococcus aureus assessed as biofilm eradication incubated for 24 hrs by crystal violet staining based assay. The series is classed as functional, organism-based. To be noted: dose 1-16 µg/ml.
Series [29] relates to Calf thymus DNA. Nature of the series: Binding affinity to calf thymus DNA assessed as compound-DNA complex formation at 4 10^-5mol/L by UV/vis spectrophotometric analysis. The series is classed as nucleic-acid assay. To be noted: Bos taurus.
In series [30] the test system is Staphylococcus aureus. Nature of the series: Induction of morphological changes in methicillin-resistant Staphylococcus aureus assessed as membrane deformations at 4 times MIC incubated for 4 hrs by scanning electron microscopic analysis. The series is classed as functional, organism-based.
In series [31] the test system is Cell membrane. As to the kind of experiment: Induction of cell membrane disruption in methicillin-resistant Staphylococcus aureus assessed as increase in protein leakage at 16 microg/ml incubated for 8 hrs. The series is classed as subcellular. To be noted: dose 16.0 µg/ml.
Series [32] deals with Calf thymus DNA. Nature of the series: Competitive binding affinity to calf thymus DNA assessed as compound-DNA complex formation upto 2 10^-5mol/L in presence of neutral red by UV/vis spectrophotometric analysis. The series is classed as nucleic-acid assay. To be noted: Bos taurus.
Series [33] concerns Staphylococcus aureus. Nature of the series: Induction of morphological changes in methicillin-resistant Staphylococcus aureus assessed as cracking of cells at 4 times MIC incubated for 4 hrs by scanning electron microscopic analysis. The format is functional, organism-based.
Series [34] concerns Calf thymus DNA. As to the kind of experiment: Binding affinity to calf thymus DNA by UV/vis spectrophotometric analysis. The format is nucleic-acid assay. The settings on record: Bos taurus; dose 4.0 10^-5mol/L.

In brackets after ≈: the same amount, converted by molar mass. Activity calls are given as the source filed them. The rule behind the calls is not given here.

The term MIC denotes the lowest concentration found to suppress growth. As to `CCn1cc(C(=O)O)c(=O)c2cc(F)c(N3CCNCC3)cc21` [NORFLOXACIN], the MIC in series [1] stood at 1 µM (≈ 0.319 µg/mL); in [2] it was 2 µM (≈ 0.639 µg/mL); in series [3] it was 4 µM (≈ 1.28 µg/mL); in [4], 8 µM (≈ 2.55 µg/mL); in series [5] it was 0.5 µM (≈ 0.16 µg/mL); in series [6] it was 1 µM (≈ 0.319 µg/mL). Besides, the MIC is 8 µM (≈ 2.55 µg/mL) in series [7]; 16 µM (≈ 5.11 µg/mL) in series [9]; 4 µM (≈ 1.28 µg/mL) in [10]; 2 µM (≈ 0.639 µg/mL) in [11]; 4 µM (≈ 1.28 µg/mL) in series [12]. For the same compound, the “fold change (FC)” value in series [8] turned out to be 4.
On to `CCCCN1C(=O)/C(=N\Nc2nccs2)c2ccccc21`, for which the result in series [13], in [14], in [15], in series [20], in series [27] and in [29] was Active. For the same compound, the result in series [30], in series [31], in series [32] and in series [33] was Active. Further, the MIC in series [1], in [2], in series [16], in series [17], in series [3] and in series [18] was 0.5 µM (≈ 0.15 µg/mL) in each case. In addition, the MIC in series [19] turned out to be 0.5 µM (≈ 0.15 µg/mL); in series [4], 1 µM (≈ 0.3 µg/mL); in [22], 1 µM (≈ 0.3 µg/mL); in [5], 0.5 µM (≈ 0.15 µg/mL); in [6], 0.25 µM (≈ 0.0751 µg/mL); in [7] it was 0.25 µM (≈ 0.0751 µg/mL). The MIC in series [9] came out at 0.5 µM (≈ 0.15 µg/mL); in series [10], 0.25 µM (≈ 0.0751 µg/mL); in [11], 0.25 µM (≈ 0.0751 µg/mL); in series [12], 0.25 µM (≈ 0.0751 µg/mL). The Activity in series [21] is 30%; in series [25], “Tde”; in [28] it was “Dose-Dependent Effect”; in series [34], “Dose-Dependent Effect”. Besides, the result in [23] was inactive. Besides, the viability at 24 h in series [24] is > 75%. For the same compound, the hemolysis at 2 h, 64 µg/mL in series [26] is < 5%.
With `O=C1/C(=N\Nc2nccs2)c2ccccc2N1Cc1cccc(Cl)c1`, the minimum inhibitory concentration (MIC) was found to be 32 µM (≈ 11.8 µg/mL) in series [1]; 256 µM (≈ 94.4 µg/mL) in series [2]; 128 µM (≈ 47.2 µg/mL) in series [16]; 128 µM (≈ 47.2 µg/mL) in [17]; 32 µM (≈ 11.8 µg/mL) in [3]; 256 µM (≈ 94.4 µg/mL) in series [18]. The MIC in series [19] worked out at 64 µM (≈ 23.6 µg/mL); in series [4], 256 µM (≈ 94.4 µg/mL); in series [22], 16 µM (≈ 5.9 µg/mL); in series [5] it was 512 µM (≈ 189 µg/mL); in series [6], 8 µM (≈ 2.95 µg/mL); in [7], 256 µM (≈ 94.4 µg/mL). Further, the minimum inhibitory concentration (MIC) in series [9] was found to be 128 µM (≈ 47.2 µg/mL); in series [10], 16 µM (≈ 5.9 µg/mL); in series [11], 16 µM (≈ 5.9 µg/mL); in series [12], 256 µM (≈ 94.4 µg/mL).
With `O=C1/C(=N\Nc2nccs2)c2ccccc2N1Cc1cccc(F)c1`, the MIC in series [1] was found to be 4 µM (≈ 1.41 µg/mL); in series [2], 128 µM (≈ 45.1 µg/mL); in series [16], 32 µM (≈ 11.3 µg/mL); in series [17] it was 32 µM (≈ 11.3 µg/mL); in [3] it was 8 µM (≈ 2.82 µg/mL); in series [18], 64 µM (≈ 22.6 µg/mL). Besides, the MIC in [19] was determined as 16 µM (≈ 5.64 µg/mL); in [4], 256 µM (≈ 90.2 µg/mL); in series [22], 128 µM (≈ 45.1 µg/mL); in series [5], 128 µM (≈ 45.1 µg/mL); in [6], 16 µM (≈ 5.64 µg/mL); in [7] it was 256 µM (≈ 90.2 µg/mL). The MIC was determined as 512 µM (≈ 180 µg/mL) in [9], 64 µM (≈ 22.6 µg/mL) in series [10], 4 µM (≈ 1.41 µg/mL) in series [11] and 256 µM (≈ 90.2 µg/mL) in series [12].

The values are drawn from ChEMBL document CHEMBL5370535, “Thiazolyl hydrazineylidenyl indolones as unique potential multitargeting broad-spectrum antimicrobial agents” (Eur J Med Chem, 2023).
